Measurements reported in patent US10071979B2, “Process of producing cycloalkylcarboxamido-indole compounds” (Vertex Pharmaceuticals Incorporated, priority 2010, dated 2018).

Target: T1, ΔF508-CFTR (Homo sapiens, UniProt P13569, DEL508-508)
T1 construct: expressed in transfected cells
Test: Assays for detecting and measuring ΔF508-CFTR correction properties (membrane potential optical assay, FRET voltage-sensor dyes)
Type: cell-based
Details: NIH3T3 mouse fibroblasts stably expressing ΔF508-CFTR; percent activity bins
Text: Assays for Detecting and Measuring ΔF508-CFTR Correction Properties of Compounds
Membrane Potential Optical Methods for Assaying ΔF508-CFTR Modulation Properties of Compounds
The optical membrane potential assay utilized voltage-sensitive FRET sensors described by Gonzalez and Tsien (See, Gonzalez, J. E. and R. Y. Tsien (1995) “Voltage sensing by fluorescence resonance energy transfer in single cells” Biophys J 69(4): 1272-80, and Gonzalez, J. E. and R. Y. Tsien (1997) “Improved indicators of cell membrane potential that use fluorescence resonance energy transfer” Chem Biol 4(4): 269-77) in combination with instrumentation for measuring fluorescence changes such as the Voltage/Ion Probe Reader (VIPR) (See, Gonzalez, J. E., K. Oades, et al. (1999) “Cell-based assays and instrumentation for screening ion-channel targets” Drug Discov Today 4(9): 431-439).
These voltage sensitive assays are based on the change in fluorescence resonant energy transfer (FRET) between the membrane-soluble, voltage-sensitive dye, DiSBAC2(3), and a fluorescent phospholipid, CC2-DMPE, which is attached to the outer leaflet of the plasma membrane and acts as a FRET donor. […] The changes in fluorescence emission were monitored using VIPR™ II, which is an integrated liquid handler and fluorescent detector designed to conduct cell-based screens in 96- or 384-well microtiter plates. […]

T1 sequence (P13569 with tags, fused parts or gaps DEL508-508): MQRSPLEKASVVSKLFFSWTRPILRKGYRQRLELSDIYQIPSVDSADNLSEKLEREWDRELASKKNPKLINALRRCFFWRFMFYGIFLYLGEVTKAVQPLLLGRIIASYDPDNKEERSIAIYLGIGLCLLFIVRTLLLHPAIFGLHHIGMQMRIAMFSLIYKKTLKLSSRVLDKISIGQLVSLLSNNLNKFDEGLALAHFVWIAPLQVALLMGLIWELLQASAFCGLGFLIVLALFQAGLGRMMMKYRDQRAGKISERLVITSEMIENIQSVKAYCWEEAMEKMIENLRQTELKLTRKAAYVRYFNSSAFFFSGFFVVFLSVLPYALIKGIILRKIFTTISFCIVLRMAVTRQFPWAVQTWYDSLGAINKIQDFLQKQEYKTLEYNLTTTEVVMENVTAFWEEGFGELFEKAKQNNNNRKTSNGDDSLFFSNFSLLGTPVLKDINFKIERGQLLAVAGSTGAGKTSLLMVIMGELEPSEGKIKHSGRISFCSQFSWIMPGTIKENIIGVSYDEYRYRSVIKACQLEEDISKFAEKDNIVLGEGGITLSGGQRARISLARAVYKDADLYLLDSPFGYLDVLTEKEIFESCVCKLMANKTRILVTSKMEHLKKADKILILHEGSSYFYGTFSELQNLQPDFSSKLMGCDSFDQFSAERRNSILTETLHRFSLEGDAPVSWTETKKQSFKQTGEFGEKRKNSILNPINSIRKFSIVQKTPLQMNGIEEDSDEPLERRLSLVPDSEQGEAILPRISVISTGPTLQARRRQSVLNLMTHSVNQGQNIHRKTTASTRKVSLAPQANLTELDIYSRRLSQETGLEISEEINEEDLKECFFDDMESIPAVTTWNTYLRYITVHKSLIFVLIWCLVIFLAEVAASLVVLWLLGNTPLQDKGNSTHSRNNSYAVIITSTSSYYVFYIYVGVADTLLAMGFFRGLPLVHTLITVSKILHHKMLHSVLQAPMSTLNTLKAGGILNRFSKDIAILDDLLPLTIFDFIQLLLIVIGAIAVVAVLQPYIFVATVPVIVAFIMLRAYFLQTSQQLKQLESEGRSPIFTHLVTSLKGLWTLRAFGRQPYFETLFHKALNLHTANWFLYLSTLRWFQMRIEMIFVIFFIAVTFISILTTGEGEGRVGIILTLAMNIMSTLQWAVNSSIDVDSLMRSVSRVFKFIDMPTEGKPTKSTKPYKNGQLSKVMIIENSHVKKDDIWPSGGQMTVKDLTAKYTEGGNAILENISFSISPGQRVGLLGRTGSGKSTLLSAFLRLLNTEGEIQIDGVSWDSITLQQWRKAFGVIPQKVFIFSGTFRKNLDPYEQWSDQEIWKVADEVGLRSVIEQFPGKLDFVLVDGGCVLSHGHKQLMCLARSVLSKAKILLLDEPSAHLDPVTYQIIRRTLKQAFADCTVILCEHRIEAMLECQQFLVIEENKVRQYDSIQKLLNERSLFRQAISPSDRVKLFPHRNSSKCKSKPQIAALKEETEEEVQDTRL

Binned MaxEfficacy (PercentActivity): +++ (100.0 < +++)
SMILES: CC(C)(CO)c1cc2cc(NC(=O)C3(c4ccc5c(c4)OC(F)(F)O5)CC3)c(F)cc2n1C[C@@H](O)CO [Compound 1, (R)-1-(2,2-difluorobenzo[d][1,3]dioxol-5-yl)-N-(1-(2,3-dihydroxypropyl)-6-fluoro-2-(1-hydroxy-2-methylpropan-2-yl)-1H-indol-5-yl)cyclopropanecarboxamide]
